Ki data for four compounds are collected here from BindingDB's records for doi:10.1124/jpet.102.046797 (University of Maryland, 2003).

The Ki is the dissociation constant of the complex between target and ligand, obtained from inhibition or displacement.

The target of the experiment is T1, Gamma-hydroxybutyrate receptor (Rattus norvegicus, UniProt Q6RY99).
T1 sequence (Q6RY99 whole entry): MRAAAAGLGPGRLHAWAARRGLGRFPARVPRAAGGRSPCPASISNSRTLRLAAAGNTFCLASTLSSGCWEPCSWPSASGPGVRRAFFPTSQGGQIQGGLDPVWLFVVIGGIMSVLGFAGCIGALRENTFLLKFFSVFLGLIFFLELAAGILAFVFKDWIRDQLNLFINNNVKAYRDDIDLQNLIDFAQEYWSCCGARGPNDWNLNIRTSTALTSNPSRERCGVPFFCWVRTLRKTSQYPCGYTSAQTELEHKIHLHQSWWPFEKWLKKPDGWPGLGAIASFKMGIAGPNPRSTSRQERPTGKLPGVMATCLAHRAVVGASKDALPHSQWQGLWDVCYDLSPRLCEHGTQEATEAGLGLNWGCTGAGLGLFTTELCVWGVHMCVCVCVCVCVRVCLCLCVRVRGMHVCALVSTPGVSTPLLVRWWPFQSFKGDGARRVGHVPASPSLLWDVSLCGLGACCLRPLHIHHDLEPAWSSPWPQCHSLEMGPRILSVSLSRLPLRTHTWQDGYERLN
As to `O=C(O)/C=C1/CCCc2ccccc2C1O` (centres undefined) [CAS_131413], the affinity, expressed as Ki, was 1.8 µM.
The figure for `O=C(O)CCCCO` [UMB58] is above 10 µM; for `CC(C)(O)CCC(=O)O` [UMB68] it is above 10 µM.
The figure for `CC(C)(O)CCCC(=O)O` [UMB75] is above 10 µM.
